{
  "source": "PubChem BioAssay (NCI)",
  "test_in_all_cases": "NCI tumour cell line growth inhibition, 384-well format",
  "key": {"OVCAR-4 ovarian": {"tested_on": "OVCAR-4 ovarian"}, "ACHN renal": {"tested_on": "ACHN renal"}, "A498 renal": {"tested_on": "A498 renal"}, "KM12 colon": {"tested_on": "KM12 colon"}, "SF-539 CNS": {"tested_on": "SF-539 CNS"}, "EKVX NSCLC": {"tested_on": "EKVX NSCLC"}, "HOP-92 NSCLC": {"tested_on": "HOP-92 NSCLC"}, "OVCAR-8 ovarian": {"tested_on": "OVCAR-8 ovarian"}, "UO-31 renal": {"tested_on": "UO-31 renal"}, "SK-MEL-28 melanoma": {"tested_on": "SK-MEL-28 melanoma"}, "NCI-H460 NSCLC": {"tested_on": "NCI-H460 NSCLC"}, "SK-MEL-5 melanoma": {"tested_on": "SK-MEL-5 melanoma"}, "MDA-MB-468 breast": {"tested_on": "MDA-MB-468 breast"}, "MCF7 breast": {"tested_on": "MCF7 breast"}, "K-562 leukemia": {"tested_on": "K-562 leukemia"}, "M14 melanoma": {"tested_on": "M14 melanoma"}, "SK-OV-3 ovarian": {"tested_on": "SK-OV-3 ovarian"}, "A549 NSCLC": {"tested_on": "A549 NSCLC"}, "MOLT-4 leukemia": {"tested_on": "MOLT-4 leukemia"}, "SF-268 CNS": {"tested_on": "SF-268 CNS"}, "MALME-3M melanoma": {"tested_on": "MALME-3M melanoma"}, "SW-620 colon": {"tested_on": "SW-620 colon"}, "MDA-MB-231 breast": {"tested_on": "MDA-MB-231 breast"}, "HL-60(TB) leukemia": {"tested_on": "HL-60(TB) leukemia"}, "RXF 393 renal": {"tested_on": "RXF 393 renal"}, "TK-10 renal": {"tested_on": "TK-10 renal"}, "BT-549 breast": {"tested_on": "BT-549 breast"}, "COLO 205 colon": {"tested_on": "COLO 205 colon"}},
  "note": "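GI50 marks 50% less growth. At the TGI there is no net growth.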",
  "data": [
    {"smiles": "COc1cccc2c1nc(C(F)F)n2-c1nc(-c2ccc(NS(=O)(=O)CCN(C)C)cc2)nc(N2CCOCC2)n1", "values": [
      {"measurement": "TGI", "setting": "OVCAR-4 ovarian", "value": 1550, "unit": "nM"},
      {"measurement": "GI50", "setting": "ACHN renal", "value": 144, "unit": "nM"},
      {"measurement": "TGI", "setting": "ACHN renal", "value": 1050, "unit": "nM"},
      {"measurement": "GI50", "setting": "A498 renal", "value": 171, "unit": "nM"},
      {"measurement": "TGI", "setting": "A498 renal", "value": 961, "unit": "nM"},
      {"measurement": "GI50", "setting": "KM12 colon", "value": 110, "unit": "nM"},
      {"measurement": "TGI", "setting": "KM12 colon", "value": 1220, "unit": "nM"},
      {"measurement": "GI50", "setting": "SF-539 CNS", "value": 179, "unit": "nM"},
      {"measurement": "TGI", "setting": "SF-539 CNS", "value": 1230, "unit": "nM"},
      {"measurement": "GI50", "setting": "EKVX NSCLC", "value": 53.9, "unit": "nM"},
      {"measurement": "TGI", "setting": "EKVX NSCLC", "value": 426, "unit": "nM"},
      {"measurement": "GI50", "setting": "HOP-92 NSCLC", "value": 167, "unit": "nM"},
      {"measurement": "TGI", "setting": "HOP-92 NSCLC", "value": 998, "unit": "nM"},
      {"measurement": "GI50", "setting": "OVCAR-8 ovarian", "value": 323, "unit": "nM"},
      {"measurement": "TGI", "setting": "OVCAR-8 ovarian", "value": 1590, "unit": "nM"},
      {"measurement": "GI50", "setting": "UO-31 renal", "value": 125, "unit": "nM"},
      {"measurement": "TGI", "setting": "UO-31 renal", "value": 384, "unit": "nM"},
      {"measurement": "GI50", "setting": "SK-MEL-28 melanoma", "value": 191, "unit": "nM"},
      {"measurement": "TGI", "setting": "SK-MEL-28 melanoma", "value": 17100, "unit": "nM"},
      {"measurement": "GI50", "setting": "NCI-H460 NSCLC", "value": 302, "unit": "nM"},
      {"measurement": "TGI", "setting": "NCI-H460 NSCLC", "value": 1550, "unit": "nM"},
      {"measurement": "GI50", "setting": "SK-MEL-5 melanoma", "value": 93.8, "unit": "nM"},
      {"measurement": "TGI", "setting": "SK-MEL-5 melanoma", "value": 371, "unit": "nM"},
      {"measurement": "GI50", "setting": "MDA-MB-468 breast", "value": 76.2, "unit": "nM"},
      {"measurement": "TGI", "setting": "MDA-MB-468 breast", "value": 431, "unit": "nM"},
      {"measurement": "GI50", "setting": "MCF7 breast", "value": 21.3, "unit": "nM"},
      {"measurement": "TGI", "setting": "MCF7 breast", "value": 299, "unit": "nM"},
      {"measurement": "GI50", "setting": "K-562 leukemia", "value": 634, "unit": "nM"},
      {"measurement": "TGI", "setting": "K-562 leukemia", "value": 1950, "unit": "nM"},
      {"measurement": "GI50", "setting": "M14 melanoma", "value": 390, "unit": "nM"},
      {"measurement": "TGI", "setting": "M14 melanoma", "value": 1710, "unit": "nM"},
      {"measurement": "GI50", "setting": "SK-OV-3 ovarian", "value": 83.5, "unit": "nM"},
      {"measurement": "TGI", "setting": "SK-OV-3 ovarian", "value": 362, "unit": "nM"},
      {"measurement": "GI50", "setting": "A549 NSCLC", "value": 297, "unit": "nM"},
      {"measurement": "TGI", "setting": "A549 NSCLC", "value": 1260, "unit": "nM"},
      {"measurement": "GI50", "setting": "MOLT-4 leukemia", "value": 46.8, "unit": "nM"},
      {"measurement": "TGI", "setting": "MOLT-4 leukemia", "value": 176, "unit": "nM"},
      {"measurement": "GI50", "setting": "SF-268 CNS", "value": 374, "unit": "nM"},
      {"measurement": "TGI", "setting": "SF-268 CNS", "value": 1780, "unit": "nM"},
      {"measurement": "GI50", "setting": "MALME-3M melanoma", "value": 127, "unit": "nM"},
      {"measurement": "TGI", "setting": "MALME-3M melanoma", "value": 874, "unit": "nM"},
      {"measurement": "GI50", "setting": "SW-620 colon", "value": 418, "unit": "nM"},
      {"measurement": "TGI", "setting": "SW-620 colon", "value": 1780, "unit": "nM"},
      {"measurement": "GI50", "setting": "MDA-MB-231 breast", "value": 319, "unit": "nM"},
      {"measurement": "TGI", "setting": "MDA-MB-231 breast", "value": 1800, "unit": "nM"},
      {"measurement": "GI50", "setting": "HL-60(TB) leukemia", "value": 116, "unit": "nM"},
      {"measurement": "TGI", "setting": "HL-60(TB) leukemia", "value": 1100, "unit": "nM"},
      {"measurement": "GI50", "setting": "RXF 393 renal", "value": 22.4, "unit": "nM"},
      {"measurement": "TGI", "setting": "RXF 393 renal", "value": 364, "unit": "nM"},
      {"measurement": "GI50", "setting": "TK-10 renal", "value": 127, "unit": "nM"},
      {"measurement": "TGI", "setting": "TK-10 renal", "value": 1220, "unit": "nM"},
      {"measurement": "GI50", "setting": "BT-549 breast", "value": 250, "unit": "nM"},
      {"measurement": "TGI", "setting": "BT-549 breast", "value": 1400, "unit": "nM"},
      {"measurement": "GI50", "setting": "COLO 205 colon", "value": 219, "unit": "nM"},
      {"measurement": "TGI", "setting": "COLO 205 colon", "value": 1100, "unit": "nM"}
    ]}
  ]
}
